Test results as given in patent EP1066315B1 (University of Dundee, priority 1998, dated 2008).
Entries after “also recorded” stand apart in the source; their conditions may differ. Residues, ends and D or L forms follow the SMILES beside them. *: point of attachment. Fmoc = O=C(OCC1c2ccccc2-c2ccccc21)*

Experiments:
[1] = system: cathepsin L and/or B; assay: Cleavage of Z-Phe-Arg-NHMec by Mono-S fractions of B cell lysosome extract; format: biochemical, human; settings: presence or absence of E64, Fig 2a
Experimental: (§1) The invention will now be described by reference to the following Examples and Figures wherein • Figure 1: Processing of TTCF by a leupeptin-insensitive cysteine endopeptidase activity. (a) TTCF was digested in vitro in the presence of disrupted lysosomes (1-2 µg) in the presence or absence of iodoacetamide (1 mM), leupeptin, E64 or pepstatin (each at 0.1 mg/ml). Digestions were in 0.1 M NH4 acetate at pH 4.5 or Na2HPO4, pH 6.0 or 7.0. After 4 hours at 37°C, the reactions were separated by Tris-tricine SDS-PAGE and stained with Coomassie Blue. (b) Cleavage sites: TTCF digestion products were separated by SDS PAGE and electrophoretically transferred to nitrocellulose membrane. Individual fragments numbered 1-6 were subjected to 5 cycles of Edman degradation. N-terminal sequence obtained is shown in bold following upstream residues from TTCF (tetanus toxin numbering). […] (c) Each fraction was analysed by SDS-PAGE and Western blotting. […] Release of 7-amino-4-methyl coumarin was measured after 10, 20 or 30 minutes. […] At different times the cells were washed, fixed in 0.05 % glutaraldehyde and antigen presentation measured using proliferation of different autologous TTCF-specific T cell clones. c, AEP pre-processing of TTCF speeds antigen presentation. […] Presentation was measured after 60 minutes of antigen pulsing using EBV B cells. […]

[2] = molecular target: T1, asparaginyl endopeptidase activity (Homo sapiens, UniProt Q99538); assay: Cleavage of Z-Ala-Ala-Asn-NHMec by Mono-S fractions of B cell lysosome extract; format: biochemical; settings: presence or absence of E64
T1 construct: We next partially purified the TTCF processing activity from a crude B cell lysosome fraction; endogenous in cells; host or cells: human B cell line EDR; membrane pellet solubilised in citrate/CHAPS, Mono-S cation-exchange fractions
T1 sequence (Q99538 26-323 limits assumed): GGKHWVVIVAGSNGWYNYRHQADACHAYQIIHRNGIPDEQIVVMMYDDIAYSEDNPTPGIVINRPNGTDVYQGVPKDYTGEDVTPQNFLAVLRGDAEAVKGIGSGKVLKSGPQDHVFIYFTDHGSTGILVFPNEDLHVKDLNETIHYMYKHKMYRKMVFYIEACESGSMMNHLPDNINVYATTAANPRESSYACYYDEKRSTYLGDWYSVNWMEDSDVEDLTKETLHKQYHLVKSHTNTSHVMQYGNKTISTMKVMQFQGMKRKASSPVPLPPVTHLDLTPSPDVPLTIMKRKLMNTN
Experimental: as §1

[3] = molecular target: T2, TTCF processing activity (Homo sapiens, UniProt Q99538); assay: TTCF processing by Mono-S fractions of B cell lysosome extract; format: biochemical; settings: 10 µg TTCF, 4 hours at 37°C, Fig 2b
T2 construct: We next partially purified the TTCF processing activity from a crude B cell lysosome fraction; endogenous in cells; host or cells: human B cell line EDR; membrane pellet solubilised in citrate/CHAPS, Mono-S cation-exchange fractions
T2 sequence (Q99538 26-323 limits assumed): T1 sequence (Q99538 26-323 limits assumed)
Experimental: as §1

[4] = molecular target: T3, disrupted lysosomes isolated from the human B cell line EDR (TTCF processing activity) (Homo sapiens, UniProt Q99538); assay: Digestion of TTCF by disrupted B cell lysosomes, SDS-PAGE readout; format: biochemical; settings: inhibitor at 0.1 mg/ml; pH 4.5; 4 hours at 37°C; Fig 1a
T3 construct: disrupted lysosomes isolated from the human B cell line EDR; endogenous in cells; host or cells: human B cell line EDR, Percoll-gradient lysosomal fraction, disrupted
T3 sequence (Q99538 26-323 limits assumed): T1 sequence (Q99538 26-323 limits assumed)
Experimental: The invention will now be described by reference to the following Examples and Figures wherein • Figure 1: Processing of TTCF by a leupeptin-insensitive cysteine endopeptidase activity. (a) TTCF was digested in vitro in the presence of disrupted lysosomes (1-2 µg) in the presence or absence of iodoacetamide (1 mM), leupeptin, E64 or pepstatin (each at 0.1 mg/ml). Digestions were in 0.1 M NH4 acetate at pH 4.5 or Na2HPO4, pH 6.0 or 7.0. After 4 hours at 37°C, the reactions were separated by Tris-tricine SDS-PAGE and stained with Coomassie Blue. (b) Cleavage sites: TTCF digestion products were separated by SDS PAGE and electrophoretically transferred to nitrocellulose membrane. Individual fragments numbered 1-6 were subjected to 5 cycles of Edman degradation. N-terminal sequence obtained is shown in bold following upstream residues from TTCF (tetanus toxin numbering). The N-terminal sequence of His-tagged TTCF was obtained for fragments 1 and 3. (c) Residues Asn 1184 and Glu 1184 in TTCF were mutated to alanine (see Methods) and digestions performed as before. The mutation abolishes cleavage at the mutated site but not at the first site (doublet at 47 kD). In this experiment cleavage of the third site was minimal. • Figure 2: TTCF is processed by an asparaginyl endopeptidase. (a) Chromatography of the TTCF processing activity on Mono-S resin. Fractions eluted by NaCl gradient were incubated with the substrates Z-Ala-Ala-Asn-NHMec or Z-Phe-Arg-NHMec in the presence or absence of E64 (trans-epoxysuccinyl-L-leucylamido-(4-guanidino)butane). […] (b) Fractions as above were incubated with 10 µg TTCF in the presence or absence of E64 for 4 hours at 37°C prior to SDS-PAGE analysis. (c) Each fraction was analysed by SDS-PAGE and Western blotting. Electrophoretically transferred material was probed with an affinity purified antiserum raised against the peptide KGIGSGKVLKSGPQC from human legumain^1. • Figure 3: Peptide inhibitors of AEP block asparaginyl endopeptidase activity and TTCF processing in vitro and in vivo. (a) TTCF was digested with purified AEP (legumain from pig kidney) in the presence or absence of 0.2 mg/ml of the peptides indicated. […] (b) Purified AEP or a crude lysosomal protease mixture were incubated with Z-Ala-Ala-Asn-NHMec, Z-Phe-Arg-NHMec (cathepsins L&B) or Z-Val-Val-Ala NHMec (cathepsin S) in the presence of increasing concentrations of AENK or AEQK. Release of 7-amino-4-methyl coumarin was measured after 10, 20 or 30 minutes. […] At different times the cells were washed, fixed in 0.05 % glutaraldehyde and co-cultured with autologous TTCF specific T cell clones. […] Proteins obtained from commercial sources, as described in the literature or custom peptides were digested with purified pig kidney legumain at pH 5.5 in the presence of 1 mM DTT. […] When present peptide was maintained during antigen pulsing at 1 mg/ml (a) or 2 mg/ml (b). At different times the cells were washed, fixed in 0.05 % glutaraldehyde and antigen presentation measured using proliferation of different autologous TTCF-specific T cell clones. c, AEP pre-processing of TTCF speeds antigen presentation. […] Presentation was measured after 60 minutes of antigen pulsing using EBV B cells.
[…]. […] Nor could we reproduce the lysosomal TTCF digestion pattern or indeed generate any of these fragments using purified cathepsins L, S, B, D or E , all of which have been implicated in the class II MHC antigen processing pathway (reviewed in refs 5 & 6).
TTCF processing activity. Lysosomal fractions from the human B cell line EDR were prepared on 27 % Percoll density gradients as previously described^8 using ^125I-labelled transferrin (internalised for 30 minutes at 37°C) and β-hexosaminidase to identify endosomal/plasma membrane and lysosomal fractions respectively. The peak of lysosomes was collected by centrifugation at 40,000 g for 1 hour, removed from the underlying Percoll pellet, collected again at 50,000 g for 1 hour and stored frozen. […]

[5] = system: purified AEP (legumain from pig kidney); assay: Digestion of TTCF with purified AEP in the presence of tetrapeptides; format: biochemical; settings: 0.2 mg/ml peptide; Fig 3a
Experimental: The invention will now be described by reference to the following Examples and Figures wherein • Figure 1: Processing of TTCF by a leupeptin-insensitive cysteine endopeptidase activity. (a) TTCF was digested in vitro in the presence of disrupted lysosomes (1-2 µg) in the presence or absence of iodoacetamide (1 mM), leupeptin, E64 or pepstatin (each at 0.1 mg/ml). Digestions were in 0.1 M NH4 acetate at pH 4.5 or Na2HPO4, pH 6.0 or 7.0. After 4 hours at 37°C, the reactions were separated by Tris-tricine SDS-PAGE and stained with Coomassie Blue. (b) Cleavage sites: TTCF digestion products were separated by SDS PAGE and electrophoretically transferred to nitrocellulose membrane. Individual fragments numbered 1-6 were subjected to 5 cycles of Edman degradation. N-terminal sequence obtained is shown in bold following upstream residues from TTCF (tetanus toxin numbering). The N-terminal sequence of His-tagged TTCF was obtained for fragments 1 and 3. (c) Residues Asn 1184 and Glu 1184 in TTCF were mutated to alanine (see Methods) and digestions performed as before. The mutation abolishes cleavage at the mutated site but not at the first site (doublet at 47 kD). In this experiment cleavage of the third site was minimal. • Figure 2: TTCF is processed by an asparaginyl endopeptidase. (a) Chromatography of the TTCF processing activity on Mono-S resin. Fractions eluted by NaCl gradient were incubated with the substrates Z-Ala-Ala-Asn-NHMec or Z-Phe-Arg-NHMec in the presence or absence of E64 (trans-epoxysuccinyl-L-leucylamido-(4-guanidino)butane). […] (b) Fractions as above were incubated with 10 µg TTCF in the presence or absence of E64 for 4 hours at 37°C prior to SDS-PAGE analysis. (c) Each fraction was analysed by SDS-PAGE and Western blotting. Electrophoretically transferred material was probed with an affinity purified antiserum raised against the peptide KGIGSGKVLKSGPQC from human legumain^1. • Figure 3: Peptide inhibitors of AEP block asparaginyl endopeptidase activity and TTCF processing in vitro and in vivo. […] Release of 7-amino-4-methyl coumarin was measured after 10, 20 or 30 minutes. […] At different times the cells were washed, fixed in 0.05 % glutaraldehyde and antigen presentation measured using proliferation of different autologous TTCF-specific T cell clones. c, AEP pre-processing of TTCF speeds antigen presentation. […] Presentation was measured after 60 minutes of antigen pulsing using EBV B cells.
We decided to test the possibility that high concentrations of asparagine containing peptides might act as competitive inhibitors. […] To establish that inhibition of AEP was specific, we measured the hydrolysis of different synthetic peptide substrates in the presence and absence of these tetrapeptides.

| SMILES | inhibition of activity cleaving Z-Phe-Arg-NHMec [1] | effect on cleavage of Z-Ala-Ala-Asn-NHMec [2] | effect on TTCF processing activity [3] | inhibition of lysosomal digestion of TTCF [4] | inhibition of processing of TTCF by AEP [5] |
| --- | --- | --- | --- | --- | --- |
| CC(C)C[C@H](NC(=O)[C@H]1O[C@@H]1C(=O)O)C(=O)NCCCCNC(=N)N [E64, trans-epoxysuccinyl-L-leucylamido-(4-guanidino)butane] | completely inhibited | no inhibitory effect; also recorded: unaffected | unaffected | could not inhibit |  |
| NCCCC[C@H](NC(=O)OCC1c2ccccc2-c2ccccc21)C(=O)N[C@@H](CC(N)=O)C(=O)N[C@@H](CC(N)=O)C(=O)N[C@@H](CCC(=O)O)C(N)=O [KNNE, Lys-Asn-Asn-Glu-NH] (Fmoc-KNNE-NH2) |  |  |  |  | also inhibited but was less effective |
